Test results published in paper PMC4010472, “Pharmacokinetics and Efficacy of Topically Applied Nonsteroidal Anti-Inflammatory Drugs in Retinochoroidal Tissues in Rabbits” (PLoS ONE, 2014).
Entries after “also recorded” stand apart in the source; their conditions may differ. Where two headings read alike, the source gives them in different places.

Columns and labels:
[1] = target: human COX-1 (Homo sapiens, UniProt P23219); test: biochemical
Description: The endogenous human COX-1 inhibitory activity was assayed by a published method with a slight modification, using venous blood of healthy volunteers with a written informed consent (obtained from Taipei Blood Center, Taipei, Taiwan). Test samples (0.3 to 1000 nM) and vehicle (1% dimethyl sulfoxide in the final assay) were pre-incubated with washed human platelets (5×10^7/mL) in modified buffer (Hanks' balanced salt solution with 15 mM HEPES, pH 7.4) for 15 minutes at 37°C. Arachidonic acid (100 µM, Cayman Chemical Co., Ann Arbor, MI) was added to initiate the reaction, and samples were incubated for an additional 15 minutes at 37°C. At the end of the incubation period, the reaction was terminated by the addition of 1 N HCl. Aliquots were then removed to determine the amount of PGE2 produced with the EIA kit. The amount of PGE2 was spectrophotometrically measured in the range of 50–6400 pg/mL at 450 nm according to the instructions of the kit using a competitive microtiter-based immunoassay method. Tests were performed with 7 concentrations of each drug to construct a dose-response curve and to determine the concentration causing a half-maximal inhibition (IC50) relative to the control values. Each series of concentrations was run in triplicate for each drug. […] The equation for a 4-parameter logistic fitting was, [drawing 1] […]

[2] = target: T1, human COX-2 (Homo sapiens, UniProt P35354); test: COX-2 inhibitory activity, human recombinant COX-2, PGE2 EIA; format: biochemical; conditions: for IC50: human recombinant COX-2, 0.3 µM arachidonic acid, PGE2 EIA, read-out: IC50 COX-2, [95% Confidence interval]
T1 construct: purchased Sigma-Aldrich; host or cells: baculovirus-infected Sf21 cells
T1 sequence (P35354 18-604): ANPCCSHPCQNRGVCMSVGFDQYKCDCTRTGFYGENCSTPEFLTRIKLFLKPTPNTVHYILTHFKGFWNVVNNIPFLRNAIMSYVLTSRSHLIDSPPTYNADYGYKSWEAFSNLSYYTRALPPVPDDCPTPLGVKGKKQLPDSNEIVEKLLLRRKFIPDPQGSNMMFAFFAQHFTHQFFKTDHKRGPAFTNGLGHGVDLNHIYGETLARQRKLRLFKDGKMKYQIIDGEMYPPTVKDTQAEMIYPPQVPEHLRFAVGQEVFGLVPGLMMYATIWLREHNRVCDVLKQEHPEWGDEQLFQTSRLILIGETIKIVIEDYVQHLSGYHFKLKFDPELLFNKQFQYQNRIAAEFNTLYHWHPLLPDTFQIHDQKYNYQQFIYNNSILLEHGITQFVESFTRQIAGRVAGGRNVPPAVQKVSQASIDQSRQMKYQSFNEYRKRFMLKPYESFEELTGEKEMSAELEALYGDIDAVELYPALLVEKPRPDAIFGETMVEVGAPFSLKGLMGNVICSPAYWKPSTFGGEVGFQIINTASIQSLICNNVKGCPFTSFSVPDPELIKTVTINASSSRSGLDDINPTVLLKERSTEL
Description: The endogenous human COX-1 inhibitory activity was assayed by a published method with a slight modification, using venous blood of healthy volunteers with a written informed consent (obtained from Taipei Blood Center, Taipei, Taiwan). Test samples (0.3 to 1000 nM) and vehicle (1% dimethyl sulfoxide in the final assay) were pre-incubated with washed human platelets (5×10^7/mL) in modified buffer (Hanks' balanced salt solution with 15 mM HEPES, pH 7.4) for 15 minutes at 37°C. Arachidonic acid (100 µM, Cayman Chemical Co., Ann Arbor, MI) was added to initiate the reaction, and samples were incubated for an additional 15 minutes at 37°C. At the end of the incubation period, the reaction was terminated by the addition of 1 N HCl. Aliquots were then removed to determine the amount of PGE2 produced with the EIA kit. The amount of PGE2 was spectrophotometrically measured in the range of 50–6400 pg/mL at 450 nm according to the instructions of the kit using a competitive microtiter-based immunoassay method. Tests were performed with 7 concentrations of each drug to construct a dose-response curve and to determine the concentration causing a half-maximal inhibition (IC50) relative to the control values. Each series of concentrations was run in triplicate for each drug. […] The equation for a 4-parameter logistic fitting was, [drawing 1]
where a is the maximum value of the sigmoid curve; b is the Hill slope; c is (a + d)/2 (or IC50); and d is the lowest value of the sigmoid curve.
Human recombinant COX-2 isolated from baculovirus-infected Sf21 cells (Sigma-Aldrich) was used for this assay. Test articles (0.1–1000 nM) and vehicle (1% dimethyl sulfoxide in the final assay) were pre-incubated with buffer (100 mM Tris-HCl, pH 7.7) containing 0.11 U COX-2, 1 mM glutathione, 1 µM hematin, and 0.5 mM phenol for 15 minutes at 37°C. Arachidonic acid (0.3 µM) was added to initiate the reaction, and samples were incubated for an additional 5 minutes at 37°C. At the end of the incubation period, the reaction was terminated by adding 1 N HCl. The amount of PGE2 produced was determined with the EIA kit, and the IC50 of each drug for COX-2 was obtained as described.

[3] = Simulated repeated-dose pharmacokinetics in retinochoroidal tissue compared with IC50 of COX-2; design: species or system rabbit
[4] = rabbit, in vivo
[5] = repeated dosing simulated from single dose; diclofenac and amfenac (nepafenac) three/day at 8 hr interval, bromfenac two/day at 12 hr interval
[6] = tested on: COX-1; conditions: cited from earlier work
[7] = tested on: COX-2; conditions: cited from earlier work
[8] = in vivo; conditions: Kbl:JW, rabbit, topical or ocular
[9] = in vivo; conditions: Kbl:JW, rabbit, topical or ocular; remark: listed apart in the source
[10] = cited from earlier work
[11] = 21 day-once daily instillation of 0.1% 14C-bromfenac; 7.2 ng/mL × 80.5% ref 35; cited from earlier work
[12] = tested on: retinal PGE2; conditions: topical, lipopolysaccharide-injected rats ref 41; cited from earlier work
[13] = tested on: laser-induced choroidal neovascularization; design: method as in PMID 21709668; conditions: topical, rats ref 17; cited from earlier work
[14] = humans, adjunctive use of topical bromfenac ref 18; cited from earlier work
[15] = Ocular distribution after single topical instillation: retinochoroidal tissue (LC-MS/MS, non-compartmental PK); conditions: Kbl:JW, rabbit, in vivo, topical or ocular, 30 µL of 0.1% eye drops
[16] = tested on: concanavalin A-induced retinochoroidal inflammation; test: Concanavalin A-induced intraocular inflammation, vitreous protein concentration (blood-retinal barrier breakdown); conditions: rabbit, 72 hours after intravitreal Con A; 50 µL of 0.1% eye drops 3 times/day for 4 days, or indomethacin 20 mg/kg s.c. once a day; vs saline, Dunnett's test
[17] = tested on: Con A-induced intraocular inflammation; design: method as in PMID 14635785; conditions: 0.5% nepafenac eye drops, 5 times/day regimen ref 22; cited from earlier work
[18] = tested on: retinal vascular leakage; conditions: topical, lipopolysaccharide-injected rats ref 41; cited from earlier work
[19] = sheep-derived enzymes or combination of sheep and recombinant human enzymes ref 23
[20] = sheep-derived enzymes or combination of sheep and recombinant human enzymes ref 24

Sequence of human COX-1 (P23219 24-599): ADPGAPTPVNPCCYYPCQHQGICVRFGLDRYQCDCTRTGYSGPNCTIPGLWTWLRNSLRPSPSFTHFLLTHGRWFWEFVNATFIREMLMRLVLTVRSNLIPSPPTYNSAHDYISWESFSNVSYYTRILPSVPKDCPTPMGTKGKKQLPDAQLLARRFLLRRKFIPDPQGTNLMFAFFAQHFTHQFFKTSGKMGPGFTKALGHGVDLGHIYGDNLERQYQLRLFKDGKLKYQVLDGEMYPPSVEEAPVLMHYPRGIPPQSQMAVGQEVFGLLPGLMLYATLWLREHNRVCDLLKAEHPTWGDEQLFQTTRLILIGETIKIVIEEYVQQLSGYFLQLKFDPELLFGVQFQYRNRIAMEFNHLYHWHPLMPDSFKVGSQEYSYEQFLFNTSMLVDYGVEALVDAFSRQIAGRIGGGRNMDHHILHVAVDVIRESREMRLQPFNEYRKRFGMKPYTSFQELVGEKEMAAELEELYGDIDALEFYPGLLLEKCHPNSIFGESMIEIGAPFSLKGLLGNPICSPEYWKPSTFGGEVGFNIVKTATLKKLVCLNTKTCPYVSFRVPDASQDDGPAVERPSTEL

Row | SMILES | IC50 [2] [nM] | AUC0–8 [4] [ng·h/g] | IC50 [6, 19] [nM] | IC50 [7, 19] [nM] | AUC(0-t) ([8]; in vivo) [ng·h/mL] | Cmax ([8]; in vivo) [ng/mL] | Cmax [9] [ng/g] | retinal PGE2 levels [12] | protein concentration in the vitreous body [16] | other results
1 | Nc1c(CC(=O)O)cccc1C(=O)c1ccccc1 [Amfenac, amfenac] | 20.4 | 41.9 ± 3.4 | 138 | 1.77 | 131 ± 11 | 25.9 ± 7.4 | 12.5 ± 7.2 | – | – | IC50 [1]: 15.3 nM; Ratio of IC50: IC50 for COX-2/IC50 for COX-1 ([2]; human COX-2 to COX-1): 1.3; simulated concentration in retinochoroidal tissue relative to IC50 of COX-2 ([3]; repeated dosing simulated from single dose, diclofenac and amfenac (nepafenac) three/day at 8 hr interval, bromfenac two/day at 12 hr interval): lower than the corresponding IC50 values at the troughs; also recorded: less than the IC50 of COX-2 at the trough level; simulated concentration in aqueous humor relative to IC50 of COX-2 [5]: almost always higher than the IC50 of COX-2 although it was slightly less than the IC50 at the trough level; IC50 [6, 20]: 250 nM; IC50 [7, 20]: 150 nM
2 | Nc1c(CC(=O)O)cccc1C(=O)c1ccc(Br)cc1 [Bromfenac, 2-amino-3-(4-bromobenzoyl) phenylacetic acid] | 7.45 | […] | […] | […] | […] | […] | 15.8 ± 7.2 | […] | […] | inhibitory activity on COX-2, times more potent than amfenac ([2]; bromfenac vs amfenac): […]; inhibitory activity on COX-2, times more potent than diclofenac ([2]; bromfenac vs diclofenac): […]; simulated concentration in retinochoroidal tissues at 8 hours after the last instillation ([3]; simulation model, 21 day-once daily instillation (data not shown)): […]; hydrophobicity (Log P) ([10]; ref 27): […]; hydrophobicity (Log P) ([10]; ref 33): 3.22; concentration of bromfenac in retinochoroidal tissues at 8 hours after the last instillation [11]: […]; laser-induced choroidal neovascularization [13]: inhibited; frequency of intravitreous ranibizumab [14]: could reduce; half-life ([8]; in vivo, 30 µL of 0.1% eye drops): […]; half-life [15]: 4.69 h
3 | O=C(O)Cc1ccccc1Nc1c(Cl)cccc1Cl [Diclofenac, diclofenac] | – | 119 ± 27 | – | – | 972 ± 44 | 300 ± 110 | 38.2 ± 18.1 | – | decrease was not significant | hydrophobicity (Log P) ([10]; ref 32): 4.31; half-life ([8]; in vivo): 1.94 h; k el ([8]; in vivo): 9.94e-05 s⁻¹; half-life [9]: 1.89 h; k el [9]: 0.000102 s⁻¹
4 | NC(=O)Cc1cccc(C(=O)c2ccccc2)c1N [Nepafenac, nepafenac] | – | – | – | – | – | – | – | significantly reduced | decrease was not significant | inhibition of the breakdown of the blood-retinal barrier [17]: significantly inhibit; Tmax ([8]; aqueous humor, 30 µL of 0.1% eye drops): 0.5 h
5 | COc1ccc2c(c1)c(CC(=O)O)c(C)n2C(=O)c1ccc(Cl)cc1 [indomethacin] | – | – | – | – | – | – | – | significantly reduced | significantly reduced | retinal vascular leakage [18]: able to prevent
